Legend:
[1] = tested on: A549-ACE2 infected with SARS-CoV-2; test: morphology score (similarity to uninfected cells); higher = more like uninfected cells; conditions: 24 h
[2] = tested on: A549-ACE2 infected with SARS-CoV-2; test: cell count relative to DMSO; higher = less toxic; conditions: 24 h
HepG2 [3] = test: cell viability relative to DMSO; higher = less toxic; conditions: 72 h
Calu-3 [4] = test: as above; conditions: 72 h
Vero E6 [5] = test: as above; conditions: 72 h
Caco-2 [6] = test: as above; conditions: 72 h
U2OS [7] = test: as above; conditions: 72 h
[8] = tested on: A549-ACE2 infected with SARS-CoV-2; test: SARS-CoV-2 infection rate relative to DMSO; higher = more infection; conditions: 24 h
Calu-3 [9] = test: relative viability EC50 (midpoint between 100% and the lowest measured viability); higher = less toxic; conditions: 72 h
Vero E6 [10] = test: as above; conditions: 72 h
U2OS [11] = test: as above; conditions: 72 h
HepG2 [12] = test: drug sensitivity score (DSS) for viability; higher = more toxic; extreme values may be limits of the assay; conditions: 72 h
Calu-3 [13] = test: as above; conditions: 72 h
Vero E6 [14] = test: as above; conditions: 72 h
Caco-2 [15] = test: as above; conditions: 72 h
U2OS [16] = test: as above; conditions: 72 h
A549-ACE2 [17] = test: drug-induced phospholipidosis relative to tamoxifen; higher = more phospholipidosis
A549-ACE2 [18] = test: phospholipidosis EC50; higher = less potent phospholipidosis inducer
HepG2 [19] = test: relative viability EC50 (midpoint between 100% and the lowest measured viability); higher = less toxic; conditions: 72 h
Caco-2 [20] = test: as above; conditions: 72 h

CC(NCCC(c1ccccc1)c1ccccc1)c1ccccc1 (configuration not stated) [fendiline]
Conditions	SARS-CoV-2 infection rate [%]	cell count [%]	cell viability [%]	morphology score	phospholipidosis EC50 [µM]
A549-ACE2 [18], 24 h	–	–	–	–	4.59
A549-ACE2 [18], 48 h	–	–	–	–	6.53
A549-ACE2 [18], 72 h	–	–	–	–	6.61
Caco-2 [6], 1 nM	–	–	97.6	–	–
Caco-2 [6], 10 nM	–	–	99.8	–	–
Caco-2 [6], 100 nM	–	–	93.9	–	–
Caco-2 [6], 1000 nM	–	–	98.1	–	–
Caco-2 [6], 10000 nM	–	–	67.6	–	–
Calu-3 [4], 1 nM	–	–	91.6	–	–
Calu-3 [4], 10 nM	–	–	96.3	–	–
Calu-3 [4], 100 nM	–	–	103	–	–
Calu-3 [4], 1000 nM	–	–	102	–	–
Calu-3 [4], 10000 nM	–	–	46.7	–	–
HepG2 [3], 1 nM	–	–	110	–	–
HepG2 [3], 10 nM	–	–	97.8	–	–
HepG2 [3], 100 nM	–	–	102	–	–
HepG2 [3], 1000 nM	–	–	94.2	–	–
HepG2 [3], 10000 nM	–	–	70.1	–	–
U2OS [7], 1 nM	–	–	99.2	–	–
U2OS [7], 10 nM	–	–	106	–	–
U2OS [7], 100 nM	–	–	93.1	–	–
U2OS [7], 1000 nM	–	–	99.6	–	–
U2OS [7], 10000 nM	–	–	84.2	–	–
Vero E6 [5], 1 nM	–	–	96.5	–	–
Vero E6 [5], 10 nM	–	–	98.6	–	–
Vero E6 [5], 100 nM	–	–	97.5	–	–
Vero E6 [5], 1000 nM	–	–	99.4	–	–
Vero E6 [5], 10000 nM	–	–	88.9	–	–
[1], 0.3 µM	–	–	–	-0.14	–
[1], 3 µM	–	–	–	0.77	–
[1], 10 µM	–	–	–	0.9	–
[1], 30 µM	–	–	–	0.08	–
[2], 0.3 µM	–	98	–	–	–
[2], 3 µM	–	110	–	–	–
[2], 10 µM	–	119	–	–	–
[2], 30 µM	–	43	–	–	–
[8], 0.3 µM	100	–	–	–	–
[8], 3 µM	47	–	–	–	–
[8], 10 µM	13	–	–	–	–
[8], 30 µM	45	–	–	–	–

Conditions	drug sensitivity score	relative viability EC50 [µM]
Caco-2 [15]	1.7	–
Calu-3 [9]	–	3.42
Calu-3 [13]	2.6	–
HepG2 [12]	2.2	–
U2OS [11]	–	> 10
U2OS [16]	0.3	–
Vero E6 [10]	–	> 10
Vero E6 [14]	0	–

drug-induced phospholipidosis [%], A549-ACE2 [17]
Conditions	0.3 µM	0.833333 µM	3.33333 µM	6.66667 µM	10 µM	30 µM
24 h	3.14	1.17	27.5	62.8	85	85.8
48 h	2.47	2.24	19.7	62.3	88.8	–
72 h	1.95	-3.79	18.1	60.3	87.3	–

CCN(CC)CCOc1ccc(/C(=C(\Cl)c2ccccc2)c2ccccc2)cc1 [clomifene]
Conditions	SARS-CoV-2 infection rate [%]	cell count [%]	cell viability [%]	morphology score	phospholipidosis EC50 [µM]
A549-ACE2 [18], 24 h	–	–	–	–	0.972
A549-ACE2 [18], 48 h	–	–	–	–	3
A549-ACE2 [18], 72 h	–	–	–	–	4.75
Caco-2 [6], 1 nM	–	–	84.4	–	–
Caco-2 [6], 10 nM	–	–	100	–	–
Caco-2 [6], 100 nM	–	–	99.1	–	–
Caco-2 [6], 1000 nM	–	–	96.4	–	–
Caco-2 [6], 10000 nM	–	–	61.1	–	–
Calu-3 [4], 1 nM	–	–	100	–	–
Calu-3 [4], 10 nM	–	–	101	–	–
Calu-3 [4], 100 nM	–	–	102	–	–
Calu-3 [4], 1000 nM	–	–	90.4	–	–
Calu-3 [4], 10000 nM	–	–	10.8	–	–
HepG2 [3], 1 nM	–	–	90.5	–	–
HepG2 [3], 10 nM	–	–	89.9	–	–
HepG2 [3], 100 nM	–	–	105	–	–
HepG2 [3], 1000 nM	–	–	96	–	–
HepG2 [3], 10000 nM	–	–	26.5	–	–
U2OS [7], 1 nM	–	–	96.1	–	–
U2OS [7], 10 nM	–	–	99.4	–	–
U2OS [7], 100 nM	–	–	96.3	–	–
U2OS [7], 1000 nM	–	–	103	–	–
U2OS [7], 10000 nM	–	–	79.3	–	–
Vero E6 [5], 1 nM	–	–	94.7	–	–
Vero E6 [5], 10 nM	–	–	95.5	–	–
Vero E6 [5], 100 nM	–	–	91.9	–	–
Vero E6 [5], 1000 nM	–	–	101	–	–
Vero E6 [5], 10000 nM	–	–	77.4	–	–
[1], 0.1 µM	–	–	–	-0.09	–
[1], 0.3 µM	–	–	–	0.35	–
[1], 1 µM	–	–	–	0.5	–
[1], 3 µM	–	–	–	0.8	–
[2], 0.1 µM	–	101	–	–	–
[2], 0.3 µM	–	106	–	–	–
[2], 1 µM	–	113	–	–	–
[2], 3 µM	–	117	–	–	–
[8], 0.1 µM	102	–	–	–	–
[8], 0.3 µM	84	–	–	–	–
[8], 1 µM	75	–	–	–	–
[8], 3 µM	31	–	–	–	–

Conditions	drug sensitivity score	relative viability EC50 [µM]
Caco-2 [15]	2.5	–
Calu-3 [9]	–	2.27
Calu-3 [13]	6.5	–
HepG2 [12]	4.6	–
HepG2 [19]	–	2.75
U2OS [11]	–	> 10
U2OS [16]	0.5	–
Vero E6 [10]	–	> 10
Vero E6 [14]	0.7	–

drug-induced phospholipidosis [%], A549-ACE2 [17]
Conditions	0.3 µM	0.833333 µM	3.33333 µM	6.66667 µM	10 µM	30 µM
24 h	9.43	34.4	86	104	115	47.6
48 h	7.92	29.7	72.8	101	120	–
72 h	9.07	23.5	62.7	94.3	144	–

CN1CCCN(C(c2ccccc2)c2ccc(Cl)cc2)CC1 (configuration not stated) [homochlorcyclizine]
Conditions	SARS-CoV-2 infection rate [%]	cell count [%]	cell viability [%]	morphology score	phospholipidosis EC50 [µM]
A549-ACE2 [18], 24 h	–	–	–	–	6.4
A549-ACE2 [18], 48 h	–	–	–	–	7.14
A549-ACE2 [18], 72 h	–	–	–	–	10.5
Caco-2 [6], 1 nM	–	–	97.5	–	–
Caco-2 [6], 10 nM	–	–	94.7	–	–
Caco-2 [6], 100 nM	–	–	90.5	–	–
Caco-2 [6], 1000 nM	–	–	99.6	–	–
Caco-2 [6], 10000 nM	–	–	101	–	–
Calu-3 [4], 1 nM	–	–	96.8	–	–
Calu-3 [4], 10 nM	–	–	94.3	–	–
Calu-3 [4], 100 nM	–	–	100	–	–
Calu-3 [4], 1000 nM	–	–	102	–	–
Calu-3 [4], 10000 nM	–	–	99.3	–	–
HepG2 [3], 1 nM	–	–	98.7	–	–
HepG2 [3], 10 nM	–	–	103	–	–
HepG2 [3], 100 nM	–	–	104	–	–
HepG2 [3], 1000 nM	–	–	108	–	–
HepG2 [3], 10000 nM	–	–	79.6	–	–
U2OS [7], 1 nM	–	–	99.8	–	–
U2OS [7], 10 nM	–	–	95.7	–	–
U2OS [7], 100 nM	–	–	104	–	–
U2OS [7], 1000 nM	–	–	99.2	–	–
U2OS [7], 10000 nM	–	–	97.1	–	–
Vero E6 [5], 1 nM	–	–	97.9	–	–
Vero E6 [5], 10 nM	–	–	99.5	–	–
Vero E6 [5], 100 nM	–	–	95.2	–	–
Vero E6 [5], 1000 nM	–	–	96.4	–	–
Vero E6 [5], 10000 nM	–	–	102	–	–
[1], 0.3 µM	–	–	–	0.01	–
[1], 3 µM	–	–	–	0.71	–
[1], 10 µM	–	–	–	0.84	–
[1], 30 µM	–	–	–	0.53	–
[2], 0.3 µM	–	102	–	–	–
[2], 3 µM	–	117	–	–	–
[2], 10 µM	–	113	–	–	–
[2], 30 µM	–	95	–	–	–
[8], 0.3 µM	97	–	–	–	–
[8], 3 µM	51	–	–	–	–
[8], 10 µM	20	–	–	–	–
[8], 30 µM	19	–	–	–	–

Conditions	drug sensitivity score	relative viability EC50 [µM]
Caco-2 [15]	0	–
Caco-2 [20]	–	> 10
Calu-3 [9]	–	> 10
Calu-3 [13]	0	–
HepG2 [12]	0.4	–
HepG2 [19]	–	> 10
U2OS [11]	–	> 10
U2OS [16]	0	–
Vero E6 [10]	–	> 10
Vero E6 [14]	0	–

drug-induced phospholipidosis [%], A549-ACE2 [17]
Conditions	0.3 µM	0.833333 µM	3.33333 µM	6.66667 µM	10 µM	30 µM
24 h	1.65	3.27	20.6	54.6	81	102
48 h	3.21	3.5	22.2	49.2	82.5	107
72 h	7.01	3.95	24.7	47.4	80.1	134
